Reference: patent publication US10961200B2, “Small molecule inhibitors of lactate dehydrogenase and methods of use thereof” (THE UNITED STATES OF AMERICA, AS REPRESENTED BY THE …, priority 2014, dated 2021)
Where a name gives a salt, the structure may show the parent alone. Read-outs that look alike come from different tables or passages of the source.

Key:
Human LDHA = Human LDHA (Homo sapiens (Human), UniProt P00338); assay: human LDHA primary biochemical assay (resazurin/diaphorase coupled, fluorescence)
Source text: Test compounds were placed in a Greiner Bio-One (Monroe, N.C.) 1536-well black solid bottom assay plate. 200 millimolar (mM) Tris HCl, pH 7.4, 100 micromolar […] EDTA and 0.01% TWEEN-20™, final concentration, was used as the assay buffer. The LDHA reagent was 2 nanomolar (nM) Human LDHA (Meridian Life Science, Inc., Memphis, Tenn.), final concentration, in assay buffer.

MiaPaCa2 cells = assay: cell-based HT lactate assay, colorimetric/fluorometric detection (inhibition of lactate production); conditions: class symbols, 0 to 3 pluses
Experimental: Cell-based HT Lactate assay is a miniaturized Biovision Lactate Colorimetric/Fluorometric Assay Kit (Cat #K607-100). The assay is roughly a 3.5 hour assay run in a 1536 plate format. Cell number optimization should be run for each cell line to achieve an optimal number in which lactate production equals roughly 90% of the standard curve range. Cell number per well optimization has been performed with the following cell lines: MiaPaCa2—500 cells/well, SNU398—500 cells/well, and P493—500 cells/well.
The lactate activity in Table 8 is represented by 0 to 3 pluses as follows: +++<1 μM; ++1-10 μM; +10-57 μM; and −>57 μM.

[1] = read-out: Inhibitory activity IC50
[2] = LDHA inhibitory activity, assay of Example 1, activity level classes

SMILES | IC50 (Human LDHA; [1]) | IC50 (MiaPaCa2 cells; Homo sapiens, MIA PaCa-2) | IC50 (Human LDHA; [2]) | IC50 (MiaPaCa2 cells)
CCOC(=O)c1csc(-n2nc(-c3ccc(F)c(-c4ccc(C)s4)c3)c(Cc3ccc(S(N)(=O)=O)c(F)c3)c2CC2CC2)n1 [Compound 229, ethyl 2-(5-(cyclopropylmethyl)-3-(4-fluoro-3-(5-methylthiophen-2-yl)phenyl)-4-(3-fluoro-4-sulfamoylbenzyl)-1H-pyrazol-1-yl)thiazole-4-carboxylate] | > 57 µM | > 57 µM |  | 
Cc1cnc(-c2cc(-c3nn(-c4nc(C(=O)O)cs4)c(CC4CC4)c3Cc3ccc(S(N)(=O)=O)c(F)c3)ccc2F)s1 [Compound 231, 2-(5-(cyclopropylmethyl)-3-(4-fluoro-3-(5-methylthiazol-2-yl)phenyl)-4-(3-fluoro-4-sulfamoylbenzyl)-1H-pyrazol-1-yl)thiazole-4-carboxylic acid, TFA] | < 0.1 µM | < 1 µM |  | 
Cc1ncc(-c2cc(-c3nn(-c4nc(C(=O)O)cs4)c(CC4CC4)c3Cc3ccc(S(N)(=O)=O)c(F)c3)ccc2F)s1 [Compound 232, 2-(5-(cyclopropylmethyl)-3-(4-fluoro-3-(2-methylthiazol-5-yl)phenyl)-4-(3-fluoro-4-sulfamoylbenzyl)-1H-pyrazol-1-yl)thiazole-4-carboxylic acid] | < 0.1 µM | < 1 µM |  | 
COc1cccc(-c2cc(-c3nn(-c4nc(C(=O)O)cs4)c(CC4CC4)c3Cc3ccc(S(N)(=O)=O)cc3)ccc2F)c1 [Compound 237] |  |  | < 0.1 µM | 1 to 10 µM
NS(=O)(=O)c1ccc(Cc2c(-c3ccc(F)c(-c4cccc(F)c4)c3)nn(-c3nc(C(=O)O)cs3)c2CC2CC2)cc1 [Compound 239] |  |  | < 0.1 µM | < 1 µM
NS(=O)(=O)c1ccc(Cc2c(-c3ccc(F)c(-c4cccc(F)c4)c3)nn(-c3nc(C(=O)O)cs3)c2C2CC2)cc1F [Compound 251] |  |  | < 0.1 µM | 1 to 10 µM
COc1cccc(-c2cc(-c3nn(-c4nc(C(=O)O)cs4)c(C4CC4)c3Cc3ccc(S(N)(=O)=O)c(F)c3)ccc2F)c1 [Compound 252] |  |  | < 0.1 µM | 1 to 10 µM
NS(=O)(=O)c1ccc(Cc2c(-c3ccc(F)c(-c4ccccc4)c3)nn(-c3nc(C(=O)O)cs3)c2CC2CC2)cc1 [Compound 257] |  |  | < 0.1 µM | < 1 µM
NS(=O)(=O)c1ccc(Cc2c(-c3ccc(F)c(C#CC4CCCC4)c3)nn(-c3nc(C(=O)O)cs3)c2CC2CC2)cc1F [Compound 258] |  |  | < 0.1 µM | < 1 µM
CN1CC=C(c2cc(-c3nn(-c4nc(C(=O)O)cs4)c(CC4CC4)c3Cc3ccc(S(N)(=O)=O)c(F)c3)ccc2F)CC1 [Compound 259] |  |  | < 0.1 µM | 10 to 57 µM
NS(=O)(=O)c1ccc(Cc2c(-c3ccc(F)c(C#CC4CCNCC4)c3)nn(-c3nc(C(=O)O)cs3)c2CC2CC2)cc1F [Compound 261] |  |  | < 0.1 µM | 1 to 10 µM
NS(=O)(=O)c1ccc(Cc2c(-c3ccc(F)c(C#CCN4CCOCC4)c3)nn(-c3nc(C(=O)O)cs3)c2CC2CC2)cc1F [Compound 263] |  |  | < 0.1 µM | 10 to 57 µM
C=C(C)C#Cc1cc(-c2nn(-c3nc(C(=O)O)cs3)c(CC3CC3)c2Cc2ccc(S(N)(=O)=O)c(F)c2)ccc1F [Compound 264] |  |  | < 0.1 µM | < 1 µM
CC(C)(O)C#Cc1cc(-c2nn(-c3nc(C(=O)O)cs3)c(CC3CC3)c2Cc2ccc(S(N)(=O)=O)c(F)c2)ccc1F [Compound 265] |  |  | < 0.1 µM | 1 to 10 µM
CCOC(=O)c1csc(-n2nc(-c3cccc(-c4ccc(C)cc4)c3)c(Cc3ccc(S(N)(=O)=O)c(F)c3)c2CC2CC2)n1 [Compound 266] |  |  | 1 to 57 µM | > 57 µM
NS(=O)(=O)c1ccc(Cc2c(-c3cccc(N4CCOCC4)c3)nn(-c3ncc(C(=O)O)s3)c2CC2CC2)cc1F [Compound 267] |  |  | < 0.1 µM | 10 to 57 µM

SMILES | IC50 (Human LDHA; [1]) | IC50 (MiaPaCa2 cells; Homo sapiens, MIA PaCa-2) | IC50 (Human LDHA; [2]) | IC50 (MiaPaCa2 cells)
CCOC(=O)c1csc(-n2nc(-c3ccc(F)c(C#CC4CCCC4)c3)c(Cc3ccc(S(N)(=O)=O)c(F)c3)c2CC2CC2)n1 [Compound 268] |  |  | > 57 µM | > 57 µM
CC#Cc1cccc(-c2nn(-c3ncc(C(=O)OCC)s3)c(CC3CC3)c2Cc2ccc(S(N)(=O)=O)c(F)c2)c1 [Compound 269] |  |  | 1 to 57 µM | < 1 µM
Cc1ccc(-c2cccc(-c3nn(-c4nc(C(=O)O)cs4)c(CC4CC4)c3Cc3ccc(S(N)(=O)=O)cc3)c2)cc1 [Compound 281] |  |  | < 0.1 µM | < 1 µM
Cc1ccc(-c2cc(-c3nn(-c4nc(C(=O)O)cs4)c(CC4CC4)c3Cc3ccc(S(N)(=O)=O)cc3)ccc2F)cc1 [Compound 284] |  |  | < 0.1 µM | < 1 µM
Cc1ccc(-c2cc(-c3nn(-c4nc(C(=O)O)cs4)c(CC4CC4)c3Cc3ccc(S(N)(=O)=O)c(F)c3)ccc2F)cc1 [Compound 288] |  |  | < 0.1 µM | < 1 µM
NS(=O)(=O)c1ccc(Cc2c(-c3cccc(-c4ccccc4)c3)nn(-c3nc(C(=O)O)cs3)c2CC2CC2)c(F)c1 [Compound 290] |  |  | < 0.1 µM | < 1 µM
N[S+](=O)([O-])c1ccc(Cc2c(-c3ccc(F)c(-c4ccc(C5CC5)cc4)c3)nn(-c3nc(C(=O)O)cs3)c2CC2CC2)cc1 [Compound 294] |  |  | < 0.1 µM | < 1 µM
NS(=O)(=O)c1ccc(Cc2c(-c3ccc(F)c(Br)c3)nn(-c3nc(C(=O)O)cs3)c2CC2CC2)cc1 [Compound 296] |  |  | < 0.1 µM | 1 to 10 µM
NS(=O)(=O)c1ccc(Cc2c(-c3cccc(-c4ccccc4)c3)nn(-c3nc(C(=O)O)cs3)c2CC(F)(F)F)cc1 [Compound 304] |  |  | 0.1 to 1 µM | 10 to 57 µM
CC(C)c1ccc(-c2cc(-c3nn(-c4nc(C(=O)O)cs4)c(CC4CC4)c3Cc3ccc([S+](N)(=O)[O-])cc3)ccc2F)cc1 [Compound 306] |  |  | < 0.1 µM | < 1 µM
Cc1ccc(-c2cc(-c3nn(-c4nc(C(=O)O)cs4)c(CC4CC4)c3Cc3ccc(S(N)(=O)=O)cc3F)ccc2F)cc1 [Compound 307] |  |  | < 0.1 µM | < 1 µM
N[S+](=O)([O-])c1ccc(Cc2c(-c3ccc(F)c(-c4ccc(F)cc4)c3)nn(-c3nc(C(=O)O)cs3)c2CC2CC2)c(F)c1 [Compound 309] |  |  | < 0.1 µM | < 1 µM
N[S+](=O)([O-])c1ccc(Cc2c(-c3ccc(F)c(-c4ccc(F)cc4)c3)nn(-c3nc(C(=O)O)cs3)c2CC2CC2)cc1 [Compound 310] |  |  | < 0.1 µM | < 1 µM
N[S+](=O)([O-])c1ccc(Cc2c(-c3ccc(F)c(-c4cccc(F)c4)c3)nn(-c3nc(C(=O)O)cs3)c2CC2CC2)c(F)c1 [Compound 324] |  |  | < 0.1 µM | < 1 µM
N[S+](=O)([O-])c1ccc(Cc2c(-c3ccc(F)c(-c4cccc(F)c4)c3)nn(-c3nc(C(=O)O)cs3)c2CC2CC2)cc1F [Compound 326] |  |  | < 0.1 µM | < 1 µM
COc1cccc(-c2cc(-c3c(Cc4ccc(S(N)(=O)=O)cc4F)c(CC4CC4)nn3-c3nc(C(=O)O)cs3)ccc2F)c1 [Compound 327] |  |  | 1 to 57 µM | 10 to 57 µM

The next lines start with results.

IC50 (Human LDHA; [1]) | IC50 (MiaPaCa2 cells; Homo sapiens, MIA PaCa-2) | SMILES | IC50 (Human LDHA; [2]) | IC50 (MiaPaCa2 cells)
< 0.1 µM | < 1 µM | Cc1csc(-c2cc(-c3nn(-c4nc(C(=O)O)cs4)c(CC4CC4)c3Cc3ccc(S(N)(=O)=O)cc3F)ccc2F)c1 [Compound 221, 2-(5-(cyclopropylmethyl)-3-(4-fluoro-3-(4-methylthiophen-2-yl)phenyl)-4-(2-fluoro-4-sulfamoylbenzyl)-1H-pyrazol-1-yl)thiazole-4-carboxylic acid] |  | 
< 0.1 µM | < 1 µM | Cc1csc(-c2cc(-c3nn(-c4nc(C(=O)O)cs4)c(CC4CC4)c3Cc3ccc(S(N)(=O)=O)c(F)c3)ccc2F)c1 [Compound 223, 2-(5-(cyclopropylmethyl)-3-(4-fluoro-3-(4-methylthiophen-2-yl)phenyl)-4-(3-fluoro-4-sulfamoylbenzyl)-1H-pyrazol-1-yl)thiazole-4-carboxylic acid] |  | 
< 0.1 µM | < 1 µM | Cc1ccc(-c2cc(-c3nn(-c4nc(C(=O)O)cs4)c(CC4CC4)c3Cc3ccc(S(N)(=O)=O)c(F)c3)ccc2F)s1 [Compound 227, 2-(5-(cyclopropylmethyl)-3-(4-fluoro-3-(5-methylthiophen-2-yl)phenyl)-4-(3-fluoro-4-sulfamoylbenzyl)-1H-pyrazol-1-yl)thiazole-4-carboxylic acid] |  | 
< 0.1 µM | < 1 µM | Cc1ccc(-c2cc(-c3nn(-c4nc(C(=O)O)cs4)c(CC4CC4)c3Cc3ccc(S(N)(=O)=O)c(F)c3)ccc2F)o1 [Compound 230, 2-(5-(cyclopropylmethyl)-3-(4-fluoro-3-(5-methylfuran-2-yl)phenyl)-4-(3-fluoro-4-sulfamoylbenzyl)-1H-pyrazol-1-yl)thiazole-4-carboxylic acid] |  | 
< 0.1 µM | < 1 µM | Cc1ccc(-c2cc(-c3nn(-c4nc(C(=O)O)cs4)c(CC4CC4)c3Cc3ccc(S(N)(=O)=O)cc3F)ccc2F)s1 [Compound 233, 2-(5-(cyclopropylmethyl)-3-(4-fluoro-3-(5-methylthiophen-2-yl)phenyl)-4-(2-fluoro-4-sulfamoylbenzyl)-1H-pyrazol-1-yl)thiazole-4-carboxylic acid] |  | 
< 0.1 µM | < 1 µM | NS(=O)(=O)c1ccc(Cc2c(-c3ccc(F)c(-c4cccs4)c3)nn(-c3nc(C(=O)O)cs3)c2CC2CC2)cc1F [Compound 234, 2-(5-(cyclopropylmethyl)-3-(4-fluoro-3-(thiophen-2-yl)phenyl)-4-(3-fluoro-4-sulfamoylbenzyl)-1H-pyrazol-1-yl)thiazole-4-carboxylic acid, TFA] |  | 
